# Test results as given in publication PMC6325233, “A Novel Actin Binding Drug with In Vivo Efficacy” (Antimicrobial Agents and Chemotherapy, 2018).
# Where two headings read alike, the source gives them in different places.
# Legend:
# Candida krusei 28415 = assay: MIC susceptibility testing (fluconazole-resistant strain); type: cell-based; conditions: Pichia kudriavzevii, 28415; CLSI M27-A3
# Description: (§1) Occidiofungin was purified from a liquid culture of Burkholderia contaminans MS14 as previously described ([21]). MIC susceptibility testing was performed according to the CLSI M27-A3 and M38-A2 standards for the susceptibility testing of yeasts and filamentous fungi, respectively. S. cerevisiae deletion mutants were obtained from the commercially available BY4741 deletion library (Thermo Scientific).
# Candida albicans 23512 = assay: as above; type: cell-based; conditions: Candida albicans, 23512; CLSI M27-A3
# Description: as §1
# Candida glabrata 27243 = assay: as above; type: cell-based; conditions: Nakaseomyces glabratus, 27243; CLSI M27-A3
# Description: as §1
# Candida glabrata 28271 = assay: MIC susceptibility testing; type: cell-based; conditions: Nakaseomyces glabratus, 28271, read-out: Fluconazole MIC
# Description: as §1
# [1] = system: Trichophyton rubrum 28659; assay: MIC susceptibility testing; type: cell-based; conditions: Trichophyton rubrum, 28659, CLSI M38-A2
# Description: as §1
# Candida albicans 28200 = assay: MIC susceptibility testing; type: cell-based; conditions: Candida albicans, 28200; CLSI M27-A3; read-out: Fluconazole MIC
# Description: as §1
# Candida tropicalis 28272 = assay: MIC susceptibility testing; type: cell-based; conditions: Candida tropicalis, 28272; CLSI M27-A3; read-out: Fluconazole MIC
# Description: as §1
# [2] = system: Candida parapsilosis 28364; assay: MIC susceptibility testing; type: cell-based; conditions: Lodderomyces parapsilosis, 28364; CLSI M27-A3; read-out: Fluconazole MIC
# Description: as §1
# [3] = system: Trichophyton mentagrophytes 28556; assay: MIC susceptibility testing; type: cell-based; conditions: Trichophyton mentagrophytes, 28556, CLSI M38-A2
# Description: as §1
# Candida krusei 28570 = assay: MIC susceptibility testing; type: cell-based; conditions: Pichia kudriavzevii, 28570; CLSI M27-A3; read-out: Fluconazole MIC
# Description: as §1
# Candida tropicalis 28478 = assay: MIC susceptibility testing; type: cell-based; conditions: Candida tropicalis, 28478; CLSI M27-A3; read-out: Fluconazole MIC
# Description: as §1
# [4] = system: Trichophyton rubrum 28658; assay: MIC susceptibility testing; type: cell-based; conditions: Trichophyton rubrum, 28658, CLSI M38-A2
# Description: as §1
# [5] = system: Trichophyton mentagrophytes 28641; assay: MIC susceptibility testing; type: cell-based; conditions: Trichophyton mentagrophytes, 28641, CLSI M38-A2
# Description: as §1
# [6] = system: Trichophyton rubrum 11199; assay: MIC susceptibility testing (terbinafine-resistant strain); type: cell-based; conditions: Trichophyton rubrum, 11199, CLSI M38-A2
# Description: as §1
# [7] = system: Trichophyton mentagrophytes 10207; assay: MIC susceptibility testing (itraconazole-resistant strain); type: cell-based; conditions: Trichophyton mentagrophytes, 10207, CLSI M38-A2
# Description: as §1
# [8] = system: Candida parapsilosis 2006; assay: MIC susceptibility testing (caspofungin-resistant strain); type: cell-based; conditions: Lodderomyces parapsilosis, 2006; CLSI M27-A3; read-out: Fluconazole MIC
# Description: as §1
# [9] = system: Cryptococcus neoformans 19526; assay: as above; type: cell-based; conditions: Cryptococcus neoformans, 19526; CLSI M27-A3; read-out: Fluconazole MIC
# Description: as §1
# Candida glabrata 25742 = assay: MIC susceptibility testing; type: cell-based; conditions: Nakaseomyces glabratus, 25742; CLSI M27-A3; read-out: Fluconazole MIC
# Description: as §1
# Candida tropicalis 9624 = assay: MIC susceptibility testing; type: cell-based; conditions: Candida tropicalis, 9624; CLSI M27-A3; read-out: Fluconazole MIC
# Description: as §1
# Candida albicans 28102 = assay: MIC susceptibility testing; type: cell-based; conditions: Candida albicans, 28102; CLSI M27-A3; read-out: Fluconazole MIC
# Description: as §1
# [10] = system: Candida parapsilosis 28174; assay: MIC susceptibility testing; type: cell-based; conditions: Lodderomyces parapsilosis, 28174; CLSI M27-A3; read-out: Fluconazole MIC
# Description: as §1
# [11] = system: Cryptococcus neoformans 27708; assay: MIC susceptibility testing; type: cell-based; conditions: Cryptococcus neoformans, 27708; CLSI M27-A3; read-out: Fluconazole MIC
# Description: as §1
# Candida krusei 9541 = assay: MIC susceptibility testing; type: cell-based; conditions: Pichia kudriavzevii, 9541; CLSI M27-A3; read-out: Fluconazole MIC
# Description: as §1
# [12] = system: Cryptococcus neoformans 28446; assay: MIC susceptibility testing; type: cell-based; conditions: Cryptococcus neoformans, 28446; CLSI M27-A3; read-out: Fluconazole MIC
# Description: as §1
# [13] = system: Mucor circinelloides 19445; assay: MIC susceptibility testing; type: cell-based; conditions: Mucor circinelloides, 19445; CLSI M38-A2; read-out: Voriconazole MIC
# Description: as §1
# Fusarium solani 18749 = assay: MIC susceptibility testing; type: cell-based; conditions: Fusarium solani, 18749; CLSI M38-A2; read-out: Voriconazole MIC
# Description: as §1
# [14] = system: Aspergillus fumigatus 28436; assay: MIC susceptibility testing; type: cell-based; conditions: Aspergillus fumigatus, 28436; CLSI M38-A2; read-out: Voriconazole MIC
# Description: as §1
# Fusarium solani 28386 = assay: MIC susceptibility testing; type: cell-based; conditions: Fusarium solani, 28386; CLSI M38-A2; read-out: Voriconazole MIC
# Description: as §1
# Mucor racemosus 27784 = assay: MIC susceptibility testing; type: cell-based; conditions: Mucor racemosus, 27784; CLSI M38-A2; read-out: Voriconazole MIC
# Description: as §1
# [15] = system: Aspergillus fumigatus 28434; assay: MIC susceptibility testing; type: cell-based; conditions: Aspergillus fumigatus, 28434; CLSI M38-A2; read-out: Voriconazole MIC
# Description: as §1
# Aspergillus flavus 28455 = assay: MIC susceptibility testing; type: cell-based; conditions: Aspergillus flavus, 28455; CLSI M38-A2; read-out: Voriconazole MIC
# Description: as §1
# Mucor fragilis 27782 = assay: MIC susceptibility testing; type: cell-based; conditions: Mucor fragilis, 27782; CLSI M38-A2; read-out: Voriconazole MIC
# Description: as §1
# Aspergillus flavus 28445 = assay: MIC susceptibility testing; type: cell-based; conditions: Aspergillus flavus, 28445; CLSI M38-A2; read-out: Voriconazole MIC
# Description: as §1
# Aspergillus flavus 28517 = assay: MIC susceptibility testing; type: cell-based; conditions: Aspergillus flavus, 28517; CLSI M38-A2; read-out: Voriconazole MIC
# Description: as §1
# Fusarium oxysporum 27718 = assay: MIC susceptibility testing; type: cell-based; conditions: Fusarium oxysporum, 27718; CLSI M38-A2; read-out: Voriconazole MIC
# Description: as §1
# [16] = system: Aspergillus fumigatus 28435; assay: MIC susceptibility testing; type: cell-based; conditions: Aspergillus fumigatus, 28435; CLSI M38-A2; read-out: Voriconazole MIC
# Description: as §1
# [17] = system: Rhizopus microsporus 28506; assay: MIC susceptibility testing; type: cell-based; conditions: Rhizopus microsporus, 28506; CLSI M38-A2; read-out: Voriconazole MIC
# Description: as §1
# Rhizopus oryzae 28403 = assay: MIC susceptibility testing; type: cell-based; conditions: Rhizopus arrhizus, 28403; CLSI M38-A2; read-out: Voriconazole MIC
# Description: as §1
# [18] = system: Rhizopus microsporus 27785; assay: MIC susceptibility testing; type: cell-based; conditions: Rhizopus microsporus, 27785; CLSI M38-A2; read-out: Voriconazole MIC
# Description: as §1
# [19] = system: Candida albicans strain ATCC 66027; conditions: cited from earlier work
# Description: Therefore, additional studies related to the perturbation of actin-based functions were performed to confirm that actin was the biological target of occidiofungin. As a dimorphic fungus, C. albicans can grow as a yeast or hypha, and the ability to switch between these forms is linked to the pathogenicity of the organism ([29]). Several reports have established that actin cables play an important role in the switch between yeast and hyphal forms ([30], [31]). The impact of ...
# [20] = at doses required for efficacious effect; cited from earlier work
# Description: Natural products with in vitro antifungal properties that target the actin cytoskeleton were previously reported ([51]). […] Occidiofungin, on the other hand, is well tolerated at 5 mg/kg or 20 mg/kg when administered intravenously or subcutaneously, respectively ([22], [25]). This dose is much higher than the MIC of occidiofungin against several fungal pathogens. ...
# [21] = target: rabbit skeletal muscle filamentous actin (F-actin) (rabbit) (UniProt P68135); assay: co-sedimentation
# [22] = target: rabbit skeletal muscle filamentous actin (F-actin) (rabbit) (UniProt P68135); assay: co-sedimentation; F-actin 200 nM; occidiofungin 25 to 25,600 nM or phalloidin 25 to 800 nM; 5 mM Tris-HCl pH 8.0, 0.2 mM ATP, 2 mM MgCl2; 30 min at room temperature; 100,000 rpm, 4°C, 20 min; free and bound ligand quantified by mass spectrometry; Langmuir isotherm; macroscopic Kd
compound,measurement,setting,value
"OC(Cn1cncn1)(Cn1cncn1)c1ccc(F)cc1F [Fluconazole, fluconazole, reference compound]",MIC,Candida krusei 28415,64 µg/mL
same,MIC,Candida albicans 23512,32 µg/mL
same,MIC,Candida glabrata 27243,64 µg/mL
same,MIC,Candida glabrata 28271,> 64 µg/mL
same,MIC,[1]; read-out: Fluconazole MIC,2 µg/mL
same,MIC,Candida albicans 28200,8 µg/mL
same,MIC,Candida tropicalis 28272,0.125 µg/mL
same,MIC,[2],0.25 µg/mL
same,MIC,[3]; read-out: Fluconazole MIC,> 16 µg/mL
same,MIC,Candida krusei 28570,16 µg/mL
same,MIC,Candida tropicalis 28478,0.125 µg/mL
same,MIC,[4]; read-out: Fluconazole MIC,2 µg/mL
same,MIC,[5]; read-out: Fluconazole MIC,16 µg/mL
same,MIC,[6]; read-out: Fluconazole MIC,0.25 µg/mL
same,MIC,[7]; read-out: Fluconazole MIC,> 16 µg/mL
same,MIC,[8],0.125 µg/mL
same,MIC,[9],4 µg/mL
same,MIC,Candida glabrata 25742,4 µg/mL
same,MIC,Candida tropicalis 9624,0.25 µg/mL
same,MIC,Candida albicans 28102,0.125 µg/mL
same,MIC,[10],0.25 µg/mL
same,MIC,[11],2 µg/mL
same,MIC,Candida krusei 9541,16 µg/mL
same,MIC,[12],4 µg/mL
"C[C@@H](c1ncncc1F)[C@](O)(Cn1cncn1)c1ccc(F)cc1F [Voriconazole, voriconazole, reference compound]",MIC,[1]; read-out: Voriconazole MIC,0.03 µg/mL
same,MIC,[13],> 16 µg/mL
same,MIC,Fusarium solani 18749,> 16 µg/mL
same,MIC,[3]; read-out: Voriconazole MIC,0.06 µg/mL
same,MIC,[14],1 µg/mL
same,MIC,[4]; read-out: Voriconazole MIC,0.03 µg/mL
same,MIC,[5]; read-out: Voriconazole MIC,0.06 µg/mL
same,MIC,[6]; read-out: Voriconazole MIC,0.008 µg/mL
same,MIC,[7]; read-out: Voriconazole MIC,0.25 µg/mL
same,MIC,Fusarium solani 28386,> 16 µg/mL
same,MIC,Mucor racemosus 27784,> 16 µg/mL
same,MIC,[15],1 µg/mL
same,MIC,Aspergillus flavus 28455,2 µg/mL
same,MIC,Mucor fragilis 27782,> 16 µg/mL
same,MIC,Aspergillus flavus 28445,2 µg/mL
same,MIC,Aspergillus flavus 28517,1 µg/mL
same,MIC,Fusarium oxysporum 27718,> 16 µg/mL
same,MIC,[16],1 µg/mL
same,MIC,[17],16 µg/mL
same,MIC,Rhizopus oryzae 28403,> 16 µg/mL
same,MIC,[18],> 16 µg/mL
C=C1[C@@H](C)[C@H]2[C@H](Cc3ccccc3)NC(=O)[C@]23OC(=O)/C=C/C(=O)CCC[C@@H](C)C/C=C/[C@H]3[C@@H]1O [cytochalasin A],effect on hyphal formation,[19],prevent hyphal formation
COC(CC1OC(=O)CC(O)C/C=C/C(=O)C(C)C(OC)c2coc(n2)-c2coc(n2)-c2coc(n2)/C=C/CCC1C)C(C)CCC(=O)C(C)C(C/C=C/N(C)C=O)OC (centres unmarked) [halichondramide],toxicity in animals,[20],limited by their toxicity in animals
C/C1=C/C(=O)O[C@@H]2C[C@@H](CC[C@H](C)/C=C\C=C\CC1)O[C@@](O)([C@@H]1CSC(=O)N1)C2 [latrunculin A],effect on hyphal formation,[19],prevent hyphal formation
Occidiofungin (peptide),Kd,[21],1000 nM
same,stoichiometry N (occidiofungin per actin monomer),[21],24
Phalloidin (peptide),Kd,[22],8 nM
same,stoichiometry N (phalloidin per actin monomer),[22],0.6
jasplakinolide,toxicity in animals,[20],limited by their toxicity in animals
